Some test systems named below: MDA-MB-231; SR; HCT-15; SNB-19; SF-295; T47D; OVCAR-5; MCF7; HCC 2998; IGROV-1; HL-60; SW-620; NCI-H460; CAKI-1; PC-3; HT-29; U-251; SF-268; RPMI-8226; HOP-92.
What all share (assay): growth of human tumour cells (NCI), 48 h

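Interpolation was linear, between the two tested concentrations surrounding the appropriate level; five concentrations were tested over 48 hours in 96-well plates. Here, GI50 denotes the concentration required for 50% inhibition of growth.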 Active and inactive are the calls of the source. Rule as the data show it: active = GI50 up to about 1.1 µM and inactive = higher. Bounds are passed on as bounds.

On to `COc1ccc2c(c1)C(=O)[C@@](Nc1ccc(C=O)cc1)(OC)[C@@](OC)(c1ccc([N+](=O)[O-])cc1)O2`, for which the GI50 with MDA-MB-231 was > 10 µM (inactive); in the test with SR it was > 10 µM (inactive); in the test with HCT-15 it was above 10 µM; in the test on SNB-19, > 10 µM (inactive); in the test on SF-295, > 10 µM (inactive); with T47D it was 5.96 µM (inactive). For the same compound, the GI50 in the test on OVCAR-5, in the test with MCF7, with HCC 2998, in the test on IGROV-1, in the test on HL-60 and with SW-620 was > 10 µM (inactive) in each case. Also, the GI50 in the test with NCI-H460 is > 10 µM (inactive); in the test with CAKI-1, > 10 µM (inactive); in the test with PC-3 it was 8.53 µM (inactive); in the test on HT-29 it was > 10 µM (inactive); in the test with U-251, > 10 µM (inactive); with SF-268, > 10 µM (inactive). For the same compound, the GI50 with RPMI-8226 was > 10 µM (inactive).

As for `CC(=O)C(C)(C)CCC(C)(C)C(C)=O`, the GI50 is > 100 µM (inactive) with MDA-MB-231; > 100 µM (inactive) with SR; above 100 µM with HCT-15; > 100 µM (inactive) in the test on SNB-19; > 100 µM (inactive) in the test with SF-295; > 100 µM (inactive) with T47D. Moreover, the GI50 with OVCAR-5, in the test on MCF7, with HCC 2998, in the test on IGROV-1, with HL-60 and in the test on SW-620 was > 100 µM (inactive) in each case. Moreover, the GI50 with NCI-H460, with CAKI-1, in the test on PC-3, with HT-29, in the test with U-251 and in the test with SF-268 was > 100 µM (inactive) each time.

As to `CSc1nc(=O)cnn1C`, the GI50 with MDA-MB-231 is > 100 µM (inactive); in the test on SR it was > 100 µM (inactive); in the test on HCT-15, above 100 µM; in the test with SNB-19 it was > 100 µM (inactive); in the test with SF-295, > 100 µM (inactive); with T47D it was > 100 µM (inactive). In addition, the GI50 in the test with OVCAR-5, in the test with MCF7, in the test with HCC 2998, in the test with IGROV-1, with SW-620 and in the test on NCI-H460 was > 100 µM (inactive) each time. Besides, the GI50 in the test with CAKI-1, in the test on PC-3, with HT-29, in the test on U-251, in the test on SF-268 and in the test on RPMI-8226 was > 100 µM (inactive) in each case.

Turning to `C/C(=N\NC(=S)N/N=C(\C)c1ccccn1)c1ccccn1`, the GI50 with MDA-MB-231 is 21.5 µM (inactive); with SR, 2.18 µM (inactive); in the test on HCT-15 it was 0.627 µM; in the test on SNB-19, 3.56 µM (inactive); in the test with SF-295, 1.57 µM (inactive); in the test with T47D, 6.31 µM (inactive). For the same compound, the GI50 in the test with OVCAR-5 is 0.675 µM (active); in the test with MCF7, 1.85 µM (inactive); in the test with IGROV-1, 4.28 µM (inactive); in the test with HL-60 it was > 100 µM (inactive); with SW-620 it was 1.75 µM (inactive); in the test on NCI-H460 it was 0.533 µM (active). Moreover, the GI50 in the test on CAKI-1 is 1.41 µM (inactive); in the test on PC-3, 1.27 µM (inactive); with HT-29, 0.575 µM (active); with U-251, 0.771 µM (active); with SF-268 it was 0.817 µM (active); with HOP-92, 2.82 µM (inactive). Further, the GI50 in the test with RPMI-8226 was 2.54 µM (inactive).
